This is an account of results in patent publication US12595248B2, “PRMT5 inhibitors” (Merck Sharp & Dohme LLC, priority 2019, dated 2026).

Experiment [1] addresses T1, PRMT5 (Homo sapiens, UniProt O14744).
T1 construct: seeded with 4000 MCF-7 cells in 30 μl media; endogenous in cells; host or cells: MCF-7 cells
The experiment can be described thus: PRMT5 Cell Target Engagement (TE) Assay. The format is cell-based. Particulars: MCF-7 cells, treated for 3 days, symmetric dimethylation of arginine (SDMA) by high content imaging. The procedure, abridged:
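Readout is single-cell nuclear symmetric-dimethylarginine immunofluorescence (Alexa488), normalized to DMSO-treated cells. Compounds were applied to MCF-7 cells for 3 days at 37 °C, top concentration 10000 nM in 1:3 steps over ten points; curves fitted with 4-parameter robust fit.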

The target in experiment [2] is T2, PRMT5-MEP50 enzyme complex (Homo sapiens, UniProt O14744).
T2 construct: Full-length (FL)-PRMT5-MEP50 enzyme complex (recombinant proteins from baculovirus-transfected Sf21 cells: FL-PRMT5; MW=73837 kDa and FL-MEP50; MW=38614); made in house; host or cells: baculovirus-transfected Sf21 cells
T2 sequence (O14744 whole entry): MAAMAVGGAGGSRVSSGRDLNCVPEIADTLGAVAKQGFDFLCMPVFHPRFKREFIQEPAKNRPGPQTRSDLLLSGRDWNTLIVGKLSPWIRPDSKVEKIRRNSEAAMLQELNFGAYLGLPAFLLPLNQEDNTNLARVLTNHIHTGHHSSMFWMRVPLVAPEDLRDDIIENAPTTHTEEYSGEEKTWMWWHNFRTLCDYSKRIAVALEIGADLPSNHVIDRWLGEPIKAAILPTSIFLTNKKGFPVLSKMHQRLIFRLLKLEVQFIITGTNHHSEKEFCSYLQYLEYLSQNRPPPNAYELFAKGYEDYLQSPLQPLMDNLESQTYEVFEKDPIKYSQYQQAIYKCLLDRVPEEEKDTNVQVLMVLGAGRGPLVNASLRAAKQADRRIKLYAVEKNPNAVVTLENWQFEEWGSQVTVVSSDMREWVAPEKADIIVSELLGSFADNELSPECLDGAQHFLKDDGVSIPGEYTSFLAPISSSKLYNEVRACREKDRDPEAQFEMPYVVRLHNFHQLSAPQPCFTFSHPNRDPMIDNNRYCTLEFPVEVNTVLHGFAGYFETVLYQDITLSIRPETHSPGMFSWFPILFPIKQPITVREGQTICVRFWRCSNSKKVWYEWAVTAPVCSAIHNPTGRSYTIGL
T2 sequence (Q9BQA1 whole entry partner): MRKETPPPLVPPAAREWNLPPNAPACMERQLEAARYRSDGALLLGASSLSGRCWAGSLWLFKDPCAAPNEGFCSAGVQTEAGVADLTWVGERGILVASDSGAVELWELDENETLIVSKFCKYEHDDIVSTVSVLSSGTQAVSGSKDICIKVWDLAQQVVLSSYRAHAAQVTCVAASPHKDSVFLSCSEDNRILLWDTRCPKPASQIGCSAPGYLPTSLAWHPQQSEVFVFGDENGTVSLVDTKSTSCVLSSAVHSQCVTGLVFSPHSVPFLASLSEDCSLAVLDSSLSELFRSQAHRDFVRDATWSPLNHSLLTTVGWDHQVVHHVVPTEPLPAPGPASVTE
Briefly: PRMT5-MEP50 Enzyme Methylation Assay (Version B). The format is biochemical. The procedure, abridged:
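Recombinant full-length PRMT5-MEP50 (0.5 nM, Sf21-expressed) pre-incubated 30 min at 37 °C with compound (20-point, 1:2, top 100000 nM), then reacted 150 min at 37 °C with 75 nM biotinylated H4R3 peptide and 15 μM SAM in Bicine pH 8.0. Formic acid quench; SAMDI MS conversion to Me2; EC50 by sigmoidal or biphasic fit.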

Setting [3] is: first of two EC50s: 7 parameters biphasic model, read-out: Enzyme Methylation Assay Version B (EC50_1).
[4] abbreviates: second of two EC50s: 7 parameters biphasic model, read-out: Enzyme Methylation Assay Version B (EC50_2).

Where two headings read alike, the source gives them in different places. A value given as a limit tells only on which side of the number the result lay.

T1 sequence (O14744 whole entry): as the sequence (O14744 whole entry) above
T1 sequence (Q9BQA1 whole entry partner): as the sequence (Q9BQA1 whole entry partner) above

Consider `O=C(c1cc2n(n1)CCN(CC(F)(F)F)C2)N1CC[C@H](N2CCc3ccccc3C2)[C@@H](O)C1` [Example 50, ((3S,4S)-4-(3,4-dihydroisoquinolin-2(1H)-yl)-3-hydroxypiperidin-1-yl)(5-(2,2,2-trifluoroethyl)-4,5,6,7-tetrahydropyrazolo[1,5-a]pyrazin-2-yl)methanone], for which the EC50 is 4260 nM in experiment [1], about 76 nM in experiment [2] (setting [3]) and 33500 nM in experiment [2] (setting [4]).
Regarding `O=C(c1ccc(-c2ncnn2C2CC2)cc1)N1CC[C@H](N2CCc3ccccc3C2)[C@@H](O)C1` [Example 60, (4-(1-cyclopropyl-1H-1,2,4-triazol-5-yl)phenyl)((3S,4S)-4-(3,4-dihydroisoquinolin-2(1H)-yl)-3-hydroxypiperidin-1-yl)methanone], the results for the EC50 in experiment [1], in experiment [2] (setting [3]) and in experiment [2] (setting [4]) were 435 nM, 14 nM and 4680 nM, respectively.
Regarding `O=C(c1ccc(-c2ncnn2C2CC2)cc1)N1CC[C@@H](N2CCc3ccccc3C2)[C@H](O)C1` [Example 61, (4-(1-cyclopropyl-1H-1,2,4-triazol-5-yl)phenyl)((3R,4R)-4-(3,4-dihydroisoquinolin-2(1H)-yl)-3-hydroxypiperidin-1-yl)methanone], the EC50 in experiment [1] is over 10000 nM; in experiment [2] (only one EC50 shown: 4 parameters single site sigmoidal model, 30 min pre-incubation, read-out: Enzyme Methylation Assay Version B (EC50)), 2550 nM.
Turning to `COc1cnc(NC2CCN(C(C)=O)CC2)cc1C(=O)N1CC[C@H](N2CCc3ccccc3C2)[C@@H](O)C1` [Example 88, 1-(4-((4-((3S,4S)-4-(3,4-dihydroisoquinolin-2(1H)-yl)-3-hydroxypiperidine-1-carbonyl)-5-methoxypyridin-2-yl)amino)piperidin-1-yl)ethan-1-one], the EC50 in experiment [1] was determined as 14 nM; in experiment [2] (setting [3]), 9.3 nM; in experiment [2] (setting [4]), 2040 nM.
Take `CC1(C)CC(=O)Nc2cc(C(=O)N3CC[C@@H](N4CCc5ccccc5C4)[C@H](O)C3)ccc21` [Example 95, 7-((3R,4R)-4-(3,4-dihydroisoquinolin-2(1H)-yl)-3-hydroxypiperidine-1-carbonyl)-4,4-dimethyl-3,4-dihydroquinolin-2(1H)-one]: the EC50 in experiment [1] was 2710 nM; in experiment [2] (setting [3]), about 62 nM; in experiment [2] (setting [4]), 39400 nM.
Consider `CC1(C)CC(=O)Nc2cc(C(=O)N3CC[C@H](N4CCc5ccccc5C4)[C@@H](O)C3)ccc21` [Example 96, 7-((3S,4S)-4-(3,4-dihydroisoquinolin-2(1H)-yl)-3-hydroxypiperidine-1-carbonyl)-4,4-dimethyl-3,4-dihydroquinolin-2(1H)-one], for which the EC50 in experiment [1] was 331 nM; in experiment [2] (setting [3]) it was about 14 nM; in experiment [2] (setting [4]) it was 15100 nM.
In the case of `CC1(C)OC(=O)Nc2cc(C(=O)N3CC[C@H](N4CCc5ccccc5C4)[C@@H](O)C3)ccc21` [Example 97, 7-((3S,4S)-4-(3,4-dihydroisoquinolin-2(1H)-yl)-3-hydroxypiperidine-1-carbonyl)-4,4-dimethyl-1,4-dihydro-2H-benzo[d][1,3]oxazin-2-one], the figures for the EC50 in experiment [1], in experiment [2] (setting [3]) and in experiment [2] (setting [4]) were 59 nM, 5.4 nM and 2850 nM, respectively.
The like results for `CC1(C)OC(=O)Nc2cc(C(=O)N3CC[C@@H](N4CCc5ccccc5C4)[C@H](O)C3)ccc21` [Example 98, 7-((3R,4R)-4-(3,4-dihydroisoquinolin-2(1H)-yl)-3-hydroxypiperidine-1-carbonyl)-4,4-dimethyl-1,4-dihydro-2H-benzo[d][1,3]oxazin-2-one] were, in that order, 5830 nM, about 118 nM and over 100000 nM.
The like results for `CS(=O)(=O)N1CCC(Nc2cc(C(=O)N3CC[C@H](N4CCc5ccccc5C4)[C@@H](O)C3)c(F)cn2)CC1` [Example 105, ((3S,4S)-4-(3,4-dihydroisoquinolin-2(1H)-yl)-3-hydroxypiperidin-1-yl)(5-fluoro-2-((1-(methylsulfonyl)piperidin-4-yl)amino)pyridin-4-yl)methanone] were, in that order, 15 nM, 3.2 nM and 1040 nM.
